How the values were obtained:
[1] = system: H1975-HGF xenografts; assay: Antitumor activity in H1975-HGF human lung carcinoma xenograft model; type: in vivo, female athymic nude mice; details: for TGI as compared to controls: Day 28, 10 mg/kg each agent, TKI po qd x 21, JNJ-372 ip biwk x 3
[2] = Body weight and clinical signs of nude mice bearing H1975 xenografts; type: in vivo, female athymic nude mice; details: for body weight change compared to the control group: H1975-xenograft-bearing nude mice, 10 mg/kg, JNJ-372 at Day 29, TKI-containing groups p<0.05; for day of euthanasia due to negative clinical signs / animals euthanized due to negative clinical signs: H1975 study; for animals euthanized due to negative clinical signs: n=10/group, unclear whether due to tumor burden or treatment
Method: (§1) Female athymic nude mice were used in the studies (n=10/group). Treatment began when SC tumors reached approximately 100 to 300 mm^3 in size. and dosing was initiated according to the treatment plan summarized in Table 2. […] The control group was dosed with vehicle orally daily for 21 days, and the isotype control antibody was dosed twice a week IP for 3 weeks. Mice were monitored for body weight and tumor volume up to Day 95, and were euthanized when individual tumor volume reached 2,000 mm^3 or at study conclusion.
(§2) Relative body weight of individual mice was calculated using the formula: (W/W0)×100, where ‘W’ represents body weight on a particular day, and ‘W0’ represents body weight at initiation of treatment. Body weight was graphically represented as mean % of initial body weight±SEM.
Statistical significance was evaluated for all pairwise comparisons on the last day of the study when at least eight mice remained in each group. Differences between groups were considered significant when p≤0.05. Statistical significance of tumor volume and body weight was calculated using the Linear Mixed-Effects analysis in R software version 3.4.2 (using Janssen's internally developed Shiny application version 3.3), with treatment and time as fixed effects and animal as random effect. Logarithmic transformation (base 10) was performed if individual longitudinal response trajectories were not linear. The information derived from this model was used to make pairwise treatment comparisons to the control group or between all the treatment groups.

[3] = Body weight and clinical signs of nude mice bearing H1975-HGF xenografts; type: in vivo, female athymic nude mice; details: for day found dead or euthanized / mice found dead or euthanized due to negative clinical signs: H1975-HGF study; for mice found dead or euthanized due to negative clinical signs: n=10/group, unclear whether due to tumor burden or treatment; for body weight change compared to the control group: H1975-HGF-tumor-bearing mice, 10 mg/kg, JNJ-372 at Day 28, TKI-containing groups p<0.05
Method: as §1, §2
Tumor volume and body weight data were graphically represented using Prism software (GraphPad, version 7). Statistical significance was evaluated for all pairwise comparisons on the last day of the study when at least eight mice remained in each group. Differences between groups were considered significant when p≤0.05. […] Logarithmic transformation (base 10) was performed if individual longitudinal response trajectories were not linear. The information derived from this model was used to make pairwise treatment comparisons to the control group or between all the treatment groups.
The experimental design was as described in Example 1 except that H1975 cells stably transfected to express hepatocyte growth factor (HGF) (H1975-HGF cells) were used in the studies and hereafter referred to as H1975-HGF-CNT.

[4] = target: mouse EGFR (Mus musculus, UniProt Q01279); assay: Binding of JNJ-372 to mouse EGFR
[5] = target: mouse c-Met (Mus musculus, UniProt P16056); assay: Binding of JNJ-372 to mouse c-Met
[6] = system: H1975 human lung xenografts; assay: Antitumor activity in H1975 human lung carcinoma xenograft model; details: for TGI as compared to controls: Day 28, 10 mg/kg each agent, TKI po qd x 21, JNJ-372 ip biwk x 3
Method: The animals were fed ad libitum water (reverse osmosis, 1 ppm Cl) and NIH 31 Modified and Irradiated Lab Diet® consisting of 18.0% crude protein, 5.0% crude fat, and 5.0% crude fiber. The mice were housed on irradiated Enrich-o'Cobs™ Laboratory Animal Bedding in static microisolators on a 12-hour light cycle at 20-22° C. (68-72° F.) and at 40-60% humidity. All studies complied with the recommendations of the Guide for Care and Use of Laboratory Animals with respect to restraint, husbandry, surgical procedures, feed and fluid regulation, and veterinary care.
NCI-H1975 cells were grown to mid-log phase in RPMI 1640 medium containing 10% fetal bovine serum, 2 mM glutamine, 100 units/mL sodium penicillin G, 25 μg/mL gentamicin, and 100 μg/mL streptomycin sulfate. The tumor cells were cultured in tissue culture flasks in a humidified incubator at 37° C., in an atmosphere of 5% CO2 and 95% air.
On the day of implant, the NCI-H1975 cells were harvested during log phase growth and resuspended in phosphate buffered saline (PBS) at a concentration of 5×10^7 cells/mL. Xenografts were initiated by subcutaneously implanting 5×10^6 NCI-H1975 cells per animal (0.1 mL suspension) into the right flank of each test animal and tumors were monitored as their volumes approached the target range of 150-200 mm^3. Fifteen days later, animals were sorted into bins by calculated tumor volumes based on vernier caliper measurements of tumor width and length to the nearest mm. The animals were then heuristically sorted among treatment groups, balancing the distribution of small to large sized tumor volumes among group assignments. […] Tumor size, in mm3, was calculated using the following formula: Tumor Volume=(w^2×l)/2 where w=width and l=length, in mm, of the tumor. […]
Female athymic nude mice were used in the studies (n=10/group). […] Mice were monitored for body weight and tumor volume up to Day 95, and were euthanized when individual tumor volume reached 2,000 mm^3 or at study conclusion.
Tumor volume data were graphically represented as the mean tumor volume±SEM. Tumor volume was calculated using the formula: tumor volume (mm^3)=(D×d2)/2; where ‘D’ represents the larger diameter, and ‘d’ the smaller diameter of the tumor as determined by caliper measurements.
The % TGI was defined as the difference between mean tumor burden of the treated and control group, calculated as % ΔTGI=([(TVc−TVc0)−(TVt−TVt0)]/(TVc−TVc0))×100 where ‘TVc’ is the mean tumor burden of a given control group, ‘TVc0’ is the mean initial tumor burden of a given control group, ‘TVt’ is the mean tumor burden of the treated group, and ‘TVt0’ is the mean initial tumor burden of the treated group.

[7] = system: EGFR-mutated NSCLC; assay: FIH dose escalation study of lazertinib monotherapy; type: in vivo, human
Method: The safety profile and preliminary efficacy of both agents in EGFR-mutated NSCLC population is based upon clinical experience of approximately 100 subjects in each study, including those enrolled into expansion cohorts at their respective RP2D.
In the current monotherapy dosing regimen, lazertinib is administered as a daily oral therapy, while JNJ-61186372 is administered intravenously weekly during Cycle 1, and then every other week thereafter, beginning with Cycle 2 Day 1.

[8] = n=10/group, 10 mg/kg each agent

mouse c-Met, sequence (P16056 25-1379): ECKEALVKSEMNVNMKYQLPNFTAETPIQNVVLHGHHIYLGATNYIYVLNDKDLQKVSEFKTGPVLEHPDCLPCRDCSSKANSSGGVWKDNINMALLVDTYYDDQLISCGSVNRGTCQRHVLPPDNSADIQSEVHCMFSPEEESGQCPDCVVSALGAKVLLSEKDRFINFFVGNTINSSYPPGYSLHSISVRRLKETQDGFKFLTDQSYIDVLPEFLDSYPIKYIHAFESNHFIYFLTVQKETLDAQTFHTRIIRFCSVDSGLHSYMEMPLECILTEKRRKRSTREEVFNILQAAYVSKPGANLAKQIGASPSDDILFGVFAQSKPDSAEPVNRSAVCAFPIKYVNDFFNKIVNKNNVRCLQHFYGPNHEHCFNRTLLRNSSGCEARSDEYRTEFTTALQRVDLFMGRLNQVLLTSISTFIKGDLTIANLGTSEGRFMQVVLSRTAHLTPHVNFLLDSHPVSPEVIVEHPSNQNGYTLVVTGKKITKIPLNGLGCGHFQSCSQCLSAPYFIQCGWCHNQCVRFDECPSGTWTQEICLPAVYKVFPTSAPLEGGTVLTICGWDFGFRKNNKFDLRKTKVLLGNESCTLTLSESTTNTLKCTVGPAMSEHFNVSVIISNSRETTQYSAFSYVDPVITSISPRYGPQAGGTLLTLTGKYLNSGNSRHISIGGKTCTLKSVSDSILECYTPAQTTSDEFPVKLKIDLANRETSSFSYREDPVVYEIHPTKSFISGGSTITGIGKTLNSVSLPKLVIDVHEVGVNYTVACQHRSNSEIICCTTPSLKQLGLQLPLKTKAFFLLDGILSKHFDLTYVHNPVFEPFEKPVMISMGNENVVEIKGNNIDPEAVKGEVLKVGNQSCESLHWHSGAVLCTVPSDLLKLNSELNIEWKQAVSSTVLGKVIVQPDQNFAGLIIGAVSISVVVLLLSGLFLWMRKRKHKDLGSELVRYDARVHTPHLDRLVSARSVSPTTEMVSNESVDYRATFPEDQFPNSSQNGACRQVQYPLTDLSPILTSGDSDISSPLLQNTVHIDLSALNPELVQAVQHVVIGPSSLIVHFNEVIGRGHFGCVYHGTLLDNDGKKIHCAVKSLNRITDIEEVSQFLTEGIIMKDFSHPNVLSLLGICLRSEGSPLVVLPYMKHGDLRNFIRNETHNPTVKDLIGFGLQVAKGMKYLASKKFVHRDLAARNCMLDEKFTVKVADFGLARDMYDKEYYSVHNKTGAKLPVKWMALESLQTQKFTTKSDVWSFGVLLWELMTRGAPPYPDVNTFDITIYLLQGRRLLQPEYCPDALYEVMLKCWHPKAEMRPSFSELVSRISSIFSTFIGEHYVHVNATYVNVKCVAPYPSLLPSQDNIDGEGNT

Compound	TGI as compared to controls [1]	body weight change compared to the control group [2]	day of euthanasia due to negative clinical signs [2]	animals euthanized due to negative clinical signs [2]	day found dead or euthanized [3]	mice found dead or euthanized due to negative clinical signs [3]	body weight change compared to the control group [3]	binding to mouse EGFR [4]	binding to mouse c-Met [5]	TGI as compared to controls [6]	CRs (complete tumor regression) [1, 8]	dose from which clinical activity in the targeted population was demonstrated ([7]; EGFR-mutated NSCLC)	DLTs ([7]; through doses up to 320 mg)	CRs (complete tumor regression, tumor not measurable on last day of analysis) [6, 8]
JNJ-372	70%	did not elicit significant body weight loss	43 days	One	53 days	One	did not elicit significant body weight loss	does not bind	does not bind	86%	–	–	–	–
C=CC(=O)Nc1cc(Nc2nccc(-c3cn(C)c4ccccc34)n2)c(OC)cc1N(C)CCN(C)C [Osimertinib, reference compound]	57%	some transient body weight loss	–	–	51 days	One	some transient body weight loss	–	–	111%	–	–	–	–
C=CC(=O)Nc1cc(Nc2nccc(-n3cc(CN(C)C)c(-c4ccccc4)n3)n2)c(OC)cc1N1CCOCC1 [Lazertinib, N-(5-(4-(4-((dimethylamino)methyl)-3-phenyl-1H-pyrazol-1-yl)pyrimidin-2-ylamino)-4-methoxy-2-morpholinophenyl)acrylamide]	75%	some transient body weight loss	21 days	One	–	–	some transient body weight loss	–	–	112%	2 of 10	240 mg	no DLTs were observed	1 of 10

Source: patent publication US11879013B2, “Combination therapies with bispecific anti-EGFR/c-Met antibodies and third generation EGFR tyrosine kinase inhibitors” (Janssen Biotech, Inc., priority 2019, dated 2024)
